pIC50: −log10 of the molar value.
Assays:
[1] = Reactivity test with glutathione (enone absorption); format: physicochemical; details: 200 µM compound, glutathione in PBS, 2 h, rt
Procedure: In a cell-free activity assay, the reaction of 1 and 2 with glutathione was measured by the decreasing absorption at 340 nm (enone group). Then, 2 µL of the substances (10 mM in DMSO) was mixed with 98 µL glutathione solution ([…] in PBS) in a 96-well plate. The absorption was measured at 340 nm every 30 s for 2 h at rt (Tecan F200). All experiments were performed at least four times.
Figure 1 Time-resolved measurement of the absorption at 340 nm (enone group) of 200 µM 1, 2 or solvent (DMSO) mixed with 6.5 mM glutathione in phosphate-buffered saline (PBS). Data are means ± SD of at least four independent measurements every 30 s.

[2] = tested on: brain-derived cells (NE-4C, neurons, astrocytes, C6, U87, U251, MZ-54); experiment: MTT assay, summary over brain-derived cells; format: cell-based; details: 48 h, read-out: IC50 (48 h) values, range over brain-derived cells
Procedure: Non-GBM cells (5 × 10^4 cells/mL, 100 µL/well) were grown in 96-well plates for 24 h. Then, they were treated with various concentrations of the test compounds or vehicle (DMSO, or EtOH) for 72 h at 37 °C. After the addition of 12.5 µL of a 0.5% MTT solution in PBS, the cells were incubated for 3 h at 37 °C so that the water-soluble MTT could be converted to formazan crystals. Then, the plates were centrifuged (300× g, 5 min, 4 °C), the medium withdrawn, and the formazan dissolved in 25 µL of DMSO containing 10% sodium dodecylsulfate (SDS) and 0.6% acetic acid for at least 2 h at 37 °C. In the case of the HL60 cells, after 2 h, the precipitate of formazan crystals was redissolved in a 10% solution of SDS in DMSO containing 0.6% acetic acid.
Adherently grown GBM cells were seeded at 5 × 10^4 cells/mL and floating spheres at 8 × 10^4 cells/mL in 100 µL/well and incubated as above for 48 or 72 h at 37 °C. Afterward, 10 µL of a 5 mg/mL MTT solution in PBS was added to the cells for 3 h at 37 °C. Then, the spheres were centrifuged shortly to collect the cells on the bottom of the plate, and the medium was removed by careful pipetting for both adherently grown and floating sphere GBM cultures. […] The absorbance of formazan (λ = 570 nm), and background (λ = 630 nm) was measured with a microplate reader (Tecan Spark, Tecan Deutschland GmbH, Crailsheim, Germany).

Row | Structure (SMILES) | fading of the enone band in the presence of glutathione [1] | pIC50 [2]
1 | CC1=C(/C=C/C(C)=C/C=C/C(C)=C/C(=O)O[C@@H]2C3=C(C)C4(CC4)[C@@](C)(O)C(=O)C3=CC2(C)C)C(C)(C)CCC1 [Compound 2, illudin M retinoate] | stabilization of conjugate 2 compared with 1 | 
2 | CC1=C2C(=CC(C)(C)[C@@H]2O)C(=O)[C@](C)(O)C12CC2 [Compound 1, illudin M] |  | 6.40 to 7.30
